# Test results as given in patent US10894784B2, “Heteroarylbenzimidazole compounds” (BAYER PHARMA AKTIENGESELLSCHAFT, priority 2015, dated 2021).
# Molecular target: TBK1 (Homo sapiens (Human), UniProt Q9UHD2)
# Assay: TBK1 low ATP kinase assay (in vitro assay 1)
# Format: biochemical
# Settings: in vitro assay 1, read-out: TBK1 low ATP kinase assay IC50
# TBK1, sequence (Q9UHD2 whole entry): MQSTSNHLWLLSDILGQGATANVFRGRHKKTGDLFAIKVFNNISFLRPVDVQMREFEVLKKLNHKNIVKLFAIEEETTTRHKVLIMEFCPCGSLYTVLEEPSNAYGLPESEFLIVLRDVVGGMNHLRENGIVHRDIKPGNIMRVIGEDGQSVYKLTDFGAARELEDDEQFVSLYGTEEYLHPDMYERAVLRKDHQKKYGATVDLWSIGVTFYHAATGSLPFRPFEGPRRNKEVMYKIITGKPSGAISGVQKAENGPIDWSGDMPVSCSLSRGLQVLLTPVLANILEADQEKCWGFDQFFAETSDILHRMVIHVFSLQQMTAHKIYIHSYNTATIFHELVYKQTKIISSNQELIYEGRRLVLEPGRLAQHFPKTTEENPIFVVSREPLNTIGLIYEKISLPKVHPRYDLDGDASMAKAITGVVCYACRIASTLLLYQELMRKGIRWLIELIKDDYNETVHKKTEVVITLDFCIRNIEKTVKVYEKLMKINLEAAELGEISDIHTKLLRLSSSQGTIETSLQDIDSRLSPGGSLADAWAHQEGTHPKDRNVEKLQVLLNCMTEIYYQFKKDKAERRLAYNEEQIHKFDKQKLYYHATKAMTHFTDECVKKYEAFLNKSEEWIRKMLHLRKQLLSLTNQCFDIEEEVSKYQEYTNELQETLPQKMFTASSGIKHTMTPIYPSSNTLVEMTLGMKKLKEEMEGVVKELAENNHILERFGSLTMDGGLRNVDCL
molecule,measurement,value
"COc1cncnc1-c1ccc2nc(Nc3cc(C(C)N4CCN(C(=O)C5CCC5)CC4)ccn3)[nH]c2c1 (single isomer, unassigned) [Example 35.03.04.A, cyclobutyl{4-[(1R or 1S)-1-(2-{[6-(5-methoxypyrimidin-4-yl)-1H-benzimidazol-2-yl]amino}pyridin-4-yl)ethyl]piperazin-1-yl}methanone]",IC50,8.38 nM
"O=C(CC(F)(F)F)N1CCN(Cc2ccnc(Nc3nc4ccc(-c5cnc(Cl)nc5)cc4[nH]3)c2)CC1 [Example 45.02.01, 1-{4-[(2-{[6-(2-chloropyrimidin-5-yl)-1H-benzimidazol-2-yl]amino}pyridin-4-yl)methyl]piperazin-1-yl}-3,3,3-trifluoropropan-1-one]",IC50,124 nM
"Cn1ccc(-c2ccc3nc(Nc4cc(CN5CCN(C(=O)CC(F)(F)F)CC5)ccn4)[nH]c3c2)n1 [Example 40.01, 3,3,3-trifluoro-1-{4-[(2-{[6-(1-methyl-1H-pyrazol-3-yl)-1H-benzimidazol-2-yl]amino}pyridin-4-yl)methyl]piperazin-1-yl}propan-1-one]",IC50,1130 nM
"CCN(C)c1cc(-c2ccc3nc(Nc4cc(CN5CCN(C(=O)C6CC6)CC5)ccn4)[nH]c3c2)ncn1 [Example 148.03, cyclopropyl[4-({2-[(6-{6-[ethyl(methyl)amino]pyrimidin-4-yl}-1H-benzimidazol-2-yl)amino]pyridin-4-yl}methyl)piperazin-1-yl]methanone]",IC50,4.8 nM
"CCc1cc(-c2ccc3nc(Nc4cc(CN5CCN(C(=O)C6CC6)CC5)ccn4)[nH]c3c2)ncn1 [Example 91.03, cyclopropyl{4-[(2-{[6-(6-ethylpyrimidin-4-yl)-1H-benzimidazol-2-yl]amino}pyridin-4-yl)methyl]piperazin-1-yl}methanone]",IC50,13 nM
"COc1ncccc1-c1ccc2nc(Nc3cc(CN4CCN(C(=O)CC(F)(F)F)CC4)ccn3)[nH]c2c1 [Example 15.01, 3,3,3-trifluoro-1-{4-[(2-{[6-(2-methoxypyridin-3-yl)-1H-benzimidazol-2-yl]amino}pyridin-4-yl)methyl]piperazin-1-yl}propan-1-one]",IC50,339 nM
"COc1cc(-c2ccc3nc(Nc4cc(C(C)N5CCN(C(=O)C6CC6)CC5)ccn4)[nH]c3c2)ncn1 (single isomer, unassigned) [Example 34.03.02.B, cyclopropyl{4-[(1S or 1R)-1-(2-{[6-(6-methoxypyrimidin-4-yl)-1H-benzimidazol-2-yl]amino}pyridin-4-yl)ethyl]piperazin-1-yl}methanone]",IC50,7.22 nM
"CN(c1cc(-c2ccc3nc(Nc4cc(CN5CCN(C(=O)CC(F)(F)F)CC5)ccn4)[nH]c3c2)ncn1)C1CCC1 [Example 156.02, 1-[4-({2-[(6-{6-[cyclobutyl(methyl)amino]pyrimidin-4-yl}-1H-benzimidazol-2-yl)amino]pyridin-4-yl}methyl)piperazin-1-yl]-3,3,3-trifluoropropan-1-one]",IC50,9.3 nM
"CCOc1nccc(-c2ccc3nc(Nc4cc(CN5CCN(C(=O)CC(F)(F)F)CC5)ccn4)[nH]c3c2)n1 [Example 26.01.03, 1-{4-[(2-{[6-(2-ethoxypyrimidin-4-yl)-1H-benzimidazol-2-yl]amino}pyridin-4-yl)methyl]piperazin-1-yl}-3,3,3-trifluoropropan-1-one]",IC50,13 nM
"COc1cnc(OCC2CC2)nc1-c1ccc2nc(Nc3cc(CN4CCN(C(=O)OC(C)(C)C)CC4)ccn3)[nH]c2c1 [Example 64.01.01, tert-butyl 4-{[2-({6-[2-(cyclopropylmethoxy)-5-methoxypyrimidin-4-yl]-1H-benzimidazol-2-yl}amino)pyridin-4-yl]methyl}piperazine-1-carboxylate]",IC50,217 nM
"3,3,3-trifluoro-1-{4-[(1R or 1S)-1-{2-[(6-{1-[(1-methylcyclopropyl)methyl]-1H-pyrazol-4-yl}-1H-benzimidazol-2-yl)amino]pyridin-4-yl}ethyl]piperazin-1-yl}propan-1-one [Example 68.02]",IC50,1.5 nM
"CC(C)(C)OC(=O)N1CCN(Cc2ccnc(Nc3nc4ccc(-c5cc(C6=CCOCC6)ncn5)cc4[nH]3)c2)CC1 [Example 198.01, tert-butyl 4-{[2-({6-[6-(3,6-dihydro-2H-pyran-4-yl)pyrimidin-4-yl]-1H-benzimidazol-2-yl}amino)pyridin-4-yl]methyl}piperazine-1-carboxylate]",IC50,43.8 nM
"O=C(C1CC1)N1CCN(Cc2ccnc(Nc3nc4ccc(-c5ncccn5)cc4[nH]3)c2)CC1 [Example 180.03, cyclopropyl{4-[(2-{[6-(pyrimidin-2-yl)-1H-benzimidazol-2-yl]amino}pyridin-4-yl)methyl]piperazin-1-yl}methanone]",IC50,364 nM
"COc1ccc(-c2ccc3nc(Nc4cc(CN5CCN(C(=O)C6CC6)CC5)ccn4)[nH]c3c2)cn1 [Example 13.02, cyclopropyl{4-[(2-{[6-(6-methoxypyridin-3-yl)-1H-benzimidazol-2-yl]amino}pyridin-4-yl)methyl]piperazin-1-yl}methanone]",IC50,166 nM
"CC(c1ccnc(Nc2nc3ccc(-c4ccncn4)cc3[nH]2)c1)N1CCN(C(=O)CC(F)(F)F)CC1 (single isomer, unassigned) [Example 23.05.02.A, 3,3,3-trifluoro-1-{4-[(1R or 1S)-1-(2-{[6-(pyrimidin-4-yl)-1H-benzimidazol-2-yl]amino}pyridin-4-yl)ethyl]piperazin-1-yl}propan-1-one]",IC50,8.23 nM
"CC(c1ccnc(Nc2nc3ccc(-c4cc(N5CC(F)(F)C5)ncn4)cc3[nH]2)c1)N1CCN(C(=O)C2(C(F)(F)F)CC2)CC1 (single isomer, unassigned) [Example 116.04, (4-{(1R or 1S)-1-[2-({6-[6-(3,3-difluoroazetidin-1-yl)pyrimidin-4-yl]-1H-benzimidazol-2-yl}amino)pyridin-4-yl]ethyl}piperazin-1-yl)[1-(trifluoromethyl)cyclopropyl]methanone]",IC50,1 nM
"Cc1noc(-c2ccc3nc(Nc4cc(CN5CCN(c6cncc(Cl)n6)CC5)ccn4)[nH]c3c2)n1 [Example 101.29, N-(4-{[4-(6-chloropyrazin-2-yl)piperazin-1-yl]methyl}pyridin-2-yl)-6-(3-methyl-1,2,4-oxadiazol-5-yl)-1H-benzimidazol-2-amine]",IC50,450 nM
"CC(C)Oc1cc(-c2ccc3nc(Nc4cc(CN5CCN(C(=O)C6CC6)CC5)ccn4)[nH]c3c2)ncn1 [Example 160.03, cyclopropyl(4-{[2-({6-[6-(propan-2-yloxy)pyrimidin-4-yl]-1H-benzimidazol-2-yl}amino)pyridin-4-yl]methyl}piperazin-1-yl)methanone]",IC50,8.5 nM
"CC(C)(O)c1cc(-c2ccc3nc(Nc4cc(CN5CCN(C(=O)CC(F)(F)F)CC5)ccn4)[nH]c3c2)ncn1 [Example 96.02, 3,3,3-trifluoro-1-(4-{[2-({6-[6-(2-hydroxypropan-2-yl)pyrimidin-4-yl]-1H-benzimidazol-2-yl}amino)pyridin-4-yl]methyl}piperazin-1-yl)propan-1-one]",IC50,22 nM
"CC(C)(C)OC(=O)N1CCN(Cc2ccnc(Nc3nc4ccc(-c5ccncc5C#N)cc4[nH]3)c2)CC1 [Example 133.01, tert-butyl 4-[(2-{[6-(3-cyanopyridin-4-yl)-1H-benzimidazol-2-yl]amino}pyridin-4-yl)methyl]piperazine-1-carboxylate]",IC50,280 nM
